# Entries after “also recorded” stand apart in the source; their conditions may differ.
# Columns and labels:
# [1] = tested on: patients affected by either non-ulcer dyspepsia, biliary dyskinesis or irritable bowel syndrome; assay: Open clinical study in digestive disorders: subjective gastrointestinal symptoms, grade 0-3; assay type: in vivo, human; settings: total number of points/number of patients, 3 months, control group value in brackets
# Description: (§1) In these studies 48 patients affected by either non-ulcer dyspepsia, biliary dyskinesis or irritable bowel syndrome were involved. 24 patients with unrestricted fat diet received only 150 mg of ursodeoxycholic acid (group A) and 24 patients only bioflavonoid (300 mg of quercetin) (group B) for 3 months. After one-month washout both groups received ursodeoxycholic acid+quercetin (Example 2) (group C) for another 3 months.
# The gastrointestinal symptoms (postprandial early satiety, abdominal distention or bloating, nausea, vomitus, diarrhea, constipation) were evaluated by using the following grading system:
# The treatments A, B and C shown in point 1 were used. In Table 2 the average complaint ratio related to one patient was given (average complaint ratio=total number of points/number of patients). The values of the control groups are given in brackets.
# [2] = tested on: patients affected by either non-ulcer dyspepsia, biliary dyskinesis or irritable bowel syndrome; assay: Open clinical study in digestive disorders: overall (psychosomatic) condition; assay type: in vivo, human; settings: % of cases, 3 months, group A 150 mg ursodeoxycholic acid, group B 300 mg quercetin, group C Example 2; for Overall (psychosomatic) condition: Improved: unrestricted fat diet
# Excerpt: The patients treated with the composition of the invention during or at the end of the meals were able to digest any type of foods including heavy or spicy ones. […] The improvement of the symptoms of patients treated with the composition of Example 2 was higher than that of the bile acid or bioflavonoid treatment alone.
# as §1
# The overall (psychosomatic) condition and subjective symptoms were compared to the results of an age and sex matched control group.
# The evaluation of the psychosomatic condition: improved, unchanged, worsened.
# [3] = tested on: female patients affected by digestive disorders, "dry eye" syndrome and premenstrual syndrome; assay: Treatment of premenstrual symptoms; assay type: in vivo, human
# Description: (§2) 72 female patients affected by digestive disorders, “dry eye” syndrome and premenstrual syndrome were treated Intramuscularly administered vitamin A improved the symptoms of “dry eye” and premenstral syndrome, but it was ineffective by peroral administration.
# (§3) Treatment A: 300.000 IU vitamin A in oil intramuscular administration ones per months,
# (§4) Treatment B: 50.000 IU vitamin A acetate dragée peroral administration, once every second day,
# (§5) Treatment C: 50.000 IU vitamin A acetate dragée peroral administration, once every second day+composition of the invention (Example 4).
# Symptoms of the premenstrual syndrome: food (sweets or chocolate) craving, exhaustion, irritability, fearfullness, anxiety or depression, hostility, feeling out of control, confusion, sleep disturbances, acne, fluid retention, weight gain, breast swelling, aches and pains, bloating, constipation or diarrhoea.
# The number of patients, methods of treatment and the grade of evaluation were the same as shown in experiment 3.
# [4] = tested on: female patients affected by digestive disorders, "dry eye" syndrome and premenstrual syndrome; assay: Improvement of activity of fat-soluble substances: "dry eye" syndrome symptoms; assay type: in vivo, human
# Description: as §2
# The subjective symptoms were evaluated by questionairs by using the following grade:
# “Dry eye” syndrome has the following symptoms: sensation of dryness, foreign body, tired eye, soreness, scatchiness, burning, reduced tearing of emotion, difficulties of opening the eye upon waking, episodes of excessive tearing, particular sensibility to wind, air conditioning, smoking, topical medication. Objective signs: particulate matter on the ocular surface, mucusthread at the inner canthus or in the lower fornix, deposits at the orefices of the meibomian glands, filamentary keratitis, hyperemia of the bulbar conjunctiva, papillary hypertrophy of the tarsal conjunctiva, thin tear meniscus, decreased brightness of the bulbar conjunctiva, frequent blinking, tear film abnormalities with fluorescein staining.
# The patients were treated as follows:
# as §3, §4, §5
# [5] = tested on: Dry eye model in Wistar rats by retrobulbar injection of capsaicin; assay: Topical treatment of "dry eye": capsaicin dry eye model; assay type: in vivo; settings: one drop 3 times per day
# Description: Dry eye model was created in 16 Wistar rats in one eye by retrobulbar injection of capsaicin as it was published in [Camras PCB, Bito L Z: The pathophysiological effects of nitrogen mustard on the rabbit eye. II. The inhibition of the initial hypersensitive phase by capsaicin and the apparent role of substance P. Invest Ophthaimol Vis Sci. 19, 423-8 (1980)], while the other eye (control) was not treated at all.
# The following treatments were applied:
# A treatment: 4 rats were treated with topical artificial tear drops, one drop 3 times per day;
# B treatment: 4 rats were treated with the composition of Example 10, one drop 3 times per day,
# C treatment: 4 rats were treated with the composition of Example 10, one drope 3 times per day+one drop of vitamin A 3 times per day (oil drop; 30 000 IU/ml),
# D treatment: 4 rats were treated with vitamin A, one drop 3 times per day (oil drop 30 000 IU/ml).
# The condition of eyes were registered as written in the literature and evaluated 4 weeks after treatment on the following scale:
# 1=punctiform ephitelial loss of the cornea;
# 2=large ephitelial loss of the cornea with mild corneal edema;
# 3=large ephitelial loss of the cornea with severe corneal edema.
# [6] = peroral, 50.000 IU vitamin A acetate dragée once every second day (Treatment B alone, Treatment C + Example 4)
# [7] = Treatment A: 300.000 IU vitamin A in oil, intramuscular, once per month
compound,measurement,setting,value
O=c1c(O)c(-c2ccc(O)c(O)c2)oc2cc(O)cc(O)c12 [quercetin],"Diarrhoea/constipation, average complaint ratio",[1],0.63 (2.54)
same,"Meteorism, average complaint ratio",[1],1.96 (2.33)
same,"Nausea, average complaint ratio",[1],0.92 (1.25)
same,"Satiety, average complaint ratio",[1],2.04 (2.86)
same,"Vomitus, average complaint ratio",[1],0.46 (0.75)
same,Overall (psychosomatic) condition: Unchanged or worsened,[2],55%
same,Overall (psychosomatic) condition: Improved,[2],45%
C[C@H](CCC(=O)O)[C@H]1CC[C@H]2[C@@H]3[C@@H](O)C[C@@H]4C[C@H](O)CC[C@]4(C)[C@H]3CC[C@]12C [ursodeoxycholic acid],"Diarrhoea/constipation, average complaint ratio",[1],2.19 (2.54)
same,"Meteorism, average complaint ratio",[1],2.12 (2.78)
same,"Nausea, average complaint ratio",[1],0.83 (1.17)
same,"Satiety, average complaint ratio",[1],2.06 (2.92)
same,"Vomitus, average complaint ratio",[1],0.12 (0.83)
same,Overall (psychosomatic) condition: Unchanged or worsened,[2],33%
same,Overall (psychosomatic) condition: Improved,[2],67%
CC(=O)OC/C=C(C)/C=C/C=C(C)/C=C/C1=C(C)CCCC1(C)C [vitamin A acetate],Premenstrual symptoms: Improved,[3]; [6],8%
same,Premenstrual symptoms: Unchanged,[3]; [6],92%
same,"""Dry eye"" symptoms: Improved",[4]; [6],12%
same,"""Dry eye"" symptoms: Unchanged",[4]; [6],88%
vitamin A,Premenstrual symptoms: Improved,[3]; [7],72%
same,Premenstrual symptoms: Unchanged,[3]; [7],28%
same,"Symptoms of premenstrual syndrome, in words",[3]; intramuscular administration,improved
same,"Symptoms of premenstrual syndrome, in words",[3]; peroral administration,ineffective; also recorded: hardly improve
same,Improvement of eye alteration (in words),[5]; compared to artificial tear drops,not significant
same,Reduced eye alteration compared to treatment with artificial tear drop (treatment A),"[5]; evaluated 4 weeks after treatment on scale 0-3, vitamin A oil drop 30 000 IU/ml",<5%
same,"""Dry eye"" symptoms: Improved",[4]; [7],80%
same,"""Dry eye"" symptoms: Unchanged",[4]; [7],20%
same,"Symptoms of ""dry eye"", in words",[4]; intramuscular administration,improved
same,"Symptoms of ""dry eye"", in words",[4]; peroral administration,ineffective; also recorded: improved only weakly
